Results on one compound are retold here after EP0028117A1, “Guanidine compounds, process for preparing them and compositions containing them” (SMITH KLINE & FRENCH LABORATORIES LIMITED, priority 1979, dated 1981).

For experiment [1], the system named is histamine H2-receptors. Put plainly: Inhibition of histamine-stimulated gastric acid secretion from lumen-perfused stomachs of anaesthetised rats. In kind it is in vivo. The following applies: i.v., lumen-perfused stomachs of rats anaesthetised with urethane.
For experiment [2], the target named is T1, histamine H2-receptors (Cavia porcellus, UniProt P47747).
T1 construct: histamine-induced tachycardia in the isolated guinea pig atrium; from tissue; host or cells: isolated guinea pig atrium
The experiment can be described thus: Inhibition of histamine-induced tachycardia in the isolated guinea pig atrium. The following applies: read-out: effective dose producing 50% inhibition of the histamine-induced tachycardia. The text has this:
This procedure is referred to in Ash and Schild, Brit. J. Pharmac. Chemother., 1966. 27. […] For example, they inhibit the actions of histamine on the isolated guinea pig atrium.

T1 sequence (P47747 whole entry): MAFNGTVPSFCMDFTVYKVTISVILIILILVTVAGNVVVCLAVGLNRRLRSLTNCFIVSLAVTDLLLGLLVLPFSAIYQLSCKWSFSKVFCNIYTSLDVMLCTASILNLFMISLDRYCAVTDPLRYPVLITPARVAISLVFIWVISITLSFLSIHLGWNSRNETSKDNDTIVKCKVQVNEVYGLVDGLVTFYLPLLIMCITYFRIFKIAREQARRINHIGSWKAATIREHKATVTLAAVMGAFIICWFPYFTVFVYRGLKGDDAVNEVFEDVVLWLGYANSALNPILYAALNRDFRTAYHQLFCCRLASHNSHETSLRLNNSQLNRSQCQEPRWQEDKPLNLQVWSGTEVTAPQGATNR

With `N=C(N)Nc1nc(CSCCNc2[nH]ccc2[N+](=O)[O-])cs1` [Example 1, 2-[2-(2-Guanidino-4-thiazolylmethylthio)ethylamin]-3-nitropyrrole], in the experiment on histamine H2-receptors [1], the “doses causing 50% inhibition of maximal acid secretion” value is “less than 0.1 micromole kg^-1”. The IC50 on histamine H2-receptors [2] is under 1 µM.
